Experimental data: PubChem BioAssay (NCI)
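96-well plates; 48 h exposure; 5 concentrations. Endpoints by linear interpolation between flanking doses. Not reached: highest tested concentration assigned. GI50: concentration for 50% inhibition of growth. The concentration for full growth arrest is given as TGI.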

Experiments:
Assay in all cases: NCI anticancer screen, dose series, 48 h; in the data active means GI50 below about 0.43 µM; inactive means the rest
OVCAR-5 ovarian = system: OVCAR-5 ovarian
M14 melanoma = system: M14 melanoma
MDA-MB-231 breast = system: MDA-MB-231 breast
UACC-62 melanoma = system: UACC-62 melanoma
MOLT-4 leukemia = system: MOLT-4 leukemia
U251 CNS = system: U251 CNS
RPMI-8226 leukemia = system: RPMI-8226 leukemia
A549 NSCLC = system: A549 NSCLC
PC-3 prostate = system: PC-3 prostate
UACC-257 melanoma = system: UACC-257 melanoma
HL-60(TB) leukemia = system: HL-60(TB) leukemia
SF-539 CNS = system: SF-539 CNS
DU-145 prostate = system: DU-145 prostate
OVCAR-3 ovarian = system: OVCAR-3 ovarian
SR leukemia = system: SR leukemia
SK-OV-3 ovarian = system: SK-OV-3 ovarian
HCT-15 colon = system: HCT-15 colon
A498 renal = system: A498 renal
MDA-MB-435 = system: MDA-MB-435
OVCAR-4 ovarian = system: OVCAR-4 ovarian
SF-268 CNS = system: SF-268 CNS
KM12 colon = system: KM12 colon
SF-295 CNS = system: SF-295 CNS
HT29 colon = system: HT29 colon
SK-MEL-2 melanoma = system: SK-MEL-2 melanoma
HS 578T breast = system: HS 578T breast
K-562 leukemia = system: K-562 leukemia
TK-10 renal = system: TK-10 renal
BT-549 breast = system: BT-549 breast
SN12C renal = system: SN12C renal
ACHN renal = system: ACHN renal
SNB-75 CNS = system: SNB-75 CNS
HOP-92 NSCLC = system: HOP-92 NSCLC
HOP-62 NSCLC = system: HOP-62 NSCLC
786-0 renal = system: 786-0 renal
UO-31 renal = system: UO-31 renal
CAKI-1 renal = system: CAKI-1 renal
LOX IMVI melanoma = system: LOX IMVI melanoma
NCI-H522 lung = system: NCI-H522 lung
COLO 205 colon = system: COLO 205 colon
SW-620 colon = system: SW-620 colon
NCI-H226 lung = system: NCI-H226 lung
T-47D breast = system: T-47D breast
MCF7 breast = system: MCF7 breast
EKVX NSCLC = system: EKVX NSCLC
HCC-2998 colon = system: HCC-2998 colon
NCI-H460 lung = system: NCI-H460 lung
NCI/ADR-RES ovarian = system: NCI/ADR-RES ovarian
OVCAR-8 ovarian = system: OVCAR-8 ovarian
SNB-19 CNS = system: SNB-19 CNS
IGROV1 ovarian = system: IGROV1 ovarian
HCT-116 colon = system: HCT-116 colon
RXF 393 renal = system: RXF 393 renal
SK-MEL-5 melanoma = system: SK-MEL-5 melanoma
NCI-H23 lung = system: NCI-H23 lung

c1cnc2[nH]cc(-c3csc(-c4cn(CCCN5CCCCC5)c5ccccc45)n3)c2c1
3.44 µM: TGI (HT29 colon)
3.22 µM: TGI (SN12C renal)
3.38 µM: TGI (A498 renal)
3.1 µM: TGI (SF-539 CNS)
2.84 µM: TGI (SNB-75 CNS)
3.06 µM: TGI (786-0 renal)
2.88 µM: TGI (HOP-92 NSCLC)
2.96 µM: TGI (OVCAR-3 ovarian)
3.18 µM: TGI (HCT-15 colon) | TGI (SF-295 CNS)
3.28 µM: TGI (U251 CNS)
4.19 µM: TGI (OVCAR-4 ovarian)
3.02 µM: TGI (HOP-62 NSCLC)
inactive: GI50 (OVCAR-5 ovarian) 1.63 µM | GI50 (M14 melanoma) 1.76 µM | GI50 (MDA-MB-231 breast) 1.63 µM | GI50 (UACC-62 melanoma) 1.7 µM | GI50 (MOLT-4 leukemia) 1.82 µM | GI50 (U251 CNS) 1.8 µM | GI50 (RPMI-8226 leukemia) 2.08 µM | GI50 (A549 NSCLC) 1.97 µM | GI50 (PC-3 prostate) 1.59 µM | GI50 (UACC-257 melanoma) 1.97 µM | GI50 (HL-60(TB) leukemia) 1.88 µM | GI50 (SF-539 CNS) 1.68 µM | GI50 (DU-145 prostate) 1.74 µM | GI50 (OVCAR-3 ovarian) 1.54 µM | GI50 (SR leukemia) 1.89 µM | GI50 (SK-OV-3 ovarian) 1.8 µM | GI50 (HCT-15 colon) 1.72 µM | GI50 (A498 renal) 1.83 µM | GI50 (MDA-MB-435) 1.67 µM | GI50 (OVCAR-4 ovarian) 1.82 µM | GI50 (SF-268 CNS) 1.56 µM | GI50 (KM12 colon) 1.61 µM | GI50 (SF-295 CNS) 1.65 µM | GI50 (HT29 colon) 1.75 µM | GI50 (SK-MEL-2 melanoma) 2.04 µM | GI50 (HS 578T breast) 2.34 µM | GI50 (K-562 leukemia) 1.74 µM | GI50 (TK-10 renal) 2.22 µM | GI50 (BT-549 breast) 1.68 µM | GI50 (SN12C renal) 1.68 µM | GI50 (ACHN renal) 1.66 µM | GI50 (SNB-75 CNS) 1.21 µM | GI50 (HOP-92 NSCLC) 1.36 µM | GI50 (HOP-62 NSCLC) 1.47 µM | GI50 (786-0 renal) 1.63 µM | GI50 (UO-31 renal) 1.18 µM
4.63 µM: TGI (RPMI-8226 leukemia)
3.45 µM: TGI (M14 melanoma)
4.24 µM: TGI (SK-MEL-2 melanoma)
3.73 µM: TGI (UACC-257 melanoma)
3.05 µM: TGI (PC-3 prostate) | TGI (ACHN renal)
3.52 µM: TGI (MOLT-4 leukemia) | TGI (K-562 leukemia)
3.74 µM: TGI (HL-60(TB) leukemia) | TGI (SR leukemia)
3.63 µM: TGI (A549 NSCLC)
3.11 µM: TGI (OVCAR-5 ovarian) | TGI (MDA-MB-231 breast)
3.16 µM: TGI (DU-145 prostate)
3.3 µM: TGI (UACC-62 melanoma)
3.19 µM: TGI (SF-268 CNS)
3.24 µM: TGI (BT-549 breast)
3.36 µM: TGI (SK-OV-3 ovarian)
3.09 µM: TGI (MDA-MB-435)
2.5 µM: TGI (UO-31 renal)
3.79 µM: TGI (TK-10 renal)
3.13 µM: TGI (KM12 colon)
7.22 µM: TGI (HS 578T breast)

Cc1ccc(-n2c3c(c4c(CN5CCOCC5)c(O)ccc42)CCc2ccccc2C3=O)cc1
92.2 µM: TGI (HL-60(TB) leukemia)
0.241 µM: TGI (HT29 colon)
inactive: GI50 (CAKI-1 renal) 94.1 µM | GI50 (OVCAR-5 ovarian) > 100 µM | GI50 (LOX IMVI melanoma) > 100 µM | GI50 (M14 melanoma) > 100 µM | GI50 (MDA-MB-231 breast) 37.8 µM | GI50 (NCI-H522 lung) 34.5 µM | GI50 (UACC-62 melanoma) > 100 µM | GI50 (MOLT-4 leukemia) 35.1 µM | GI50 (COLO 205 colon) > 100 µM | GI50 (U251 CNS) > 100 µM | GI50 (SW-620 colon) > 100 µM | GI50 (NCI-H226 lung) 78.1 µM | GI50 (RPMI-8226 leukemia) 21 µM | GI50 (A549 NSCLC) 82.3 µM | GI50 (T-47D breast) > 100 µM | GI50 (MCF7 breast) > 100 µM | GI50 (EKVX NSCLC) > 100 µM | GI50 (PC-3 prostate) 42.4 µM | GI50 (UACC-257 melanoma) > 100 µM | GI50 (HL-60(TB) leukemia) 19.9 µM | GI50 (HCC-2998 colon) > 100 µM | GI50 (SF-539 CNS) > 100 µM | GI50 (DU-145 prostate) > 100 µM | GI50 (OVCAR-3 ovarian) 71.2 µM | GI50 (SK-OV-3 ovarian) > 100 µM | GI50 (HCT-15 colon) > 100 µM | GI50 (NCI-H460 lung) 65.8 µM | GI50 (A498 renal) > 100 µM | GI50 (MDA-MB-435) 29.6 µM | GI50 (SF-268 CNS) 73.7 µM | GI50 (KM12 colon) > 100 µM | GI50 (SF-295 CNS) > 100 µM | GI50 (SK-MEL-2 melanoma) > 100 µM | GI50 (NCI/ADR-RES ovarian) 39.1 µM | GI50 (HS 578T breast) > 100 µM | GI50 (K-562 leukemia) 25.8 µM | GI50 (OVCAR-8 ovarian) 90.7 µM | GI50 (TK-10 renal) > 100 µM | GI50 (BT-549 breast) 33.8 µM | GI50 (SN12C renal) 46.9 µM | GI50 (SNB-19 CNS) > 100 µM | GI50 (ACHN renal) > 100 µM | GI50 (IGROV1 ovarian) 23.3 µM | GI50 (HOP-92 NSCLC) 68.2 µM | GI50 (HOP-62 NSCLC) > 100 µM | GI50 (786-0 renal) 91.5 µM | GI50 (UO-31 renal) > 100 µM | GI50 (HCT-116 colon) > 100 µM | GI50 (RXF 393 renal) 25.9 µM | GI50 (SK-MEL-5 melanoma) 76 µM | GI50 (NCI-H23 lung) > 100 µM
> 100 µM: TGI (CAKI-1 renal) | TGI (OVCAR-5 ovarian) | TGI (LOX IMVI melanoma) | TGI (M14 melanoma) | TGI (MDA-MB-231 breast) | TGI (NCI-H522 lung) | TGI (UACC-62 melanoma) | TGI (MOLT-4 leukemia) | TGI (COLO 205 colon) | TGI (U251 CNS) | TGI (SW-620 colon) | TGI (NCI-H226 lung) | TGI (RPMI-8226 leukemia) | TGI (A549 NSCLC) | TGI (T-47D breast) | TGI (MCF7 breast) | TGI (EKVX NSCLC) | TGI (PC-3 prostate) | TGI (UACC-257 melanoma) | TGI (HCC-2998 colon) | TGI (SF-539 CNS) | TGI (DU-145 prostate) | TGI (OVCAR-3 ovarian) | TGI (SK-OV-3 ovarian) | TGI (HCT-15 colon) | TGI (NCI-H460 lung) | TGI (A498 renal) | TGI (MDA-MB-435) | TGI (SF-268 CNS) | TGI (KM12 colon) | TGI (SF-295 CNS) | TGI (SK-MEL-2 melanoma) | TGI (NCI/ADR-RES ovarian) | TGI (HS 578T breast) | TGI (K-562 leukemia) | TGI (OVCAR-8 ovarian) | TGI (TK-10 renal) | TGI (BT-549 breast) | TGI (SN12C renal) | TGI (SNB-19 CNS) | TGI (ACHN renal) | TGI (IGROV1 ovarian) | TGI (HOP-92 NSCLC) | TGI (HOP-62 NSCLC) | TGI (786-0 renal) | TGI (UO-31 renal) | TGI (HCT-116 colon) | TGI (RXF 393 renal) | TGI (SK-MEL-5 melanoma) | TGI (NCI-H23 lung)
